The text below walks through data of patent US10633366B2, “Antibacterial compounds” (AZIENDE CHIMICHE RIUNITE ANGELINI FRANCESCO A.C.R.A.F. …, priority 2016, dated 2020).

Structures are written as SMILES. Where two headings read alike, the source gives them in different places. Some results are limits rather than exact numbers.

Holding throughout (assay): biochemical
One experiment deals with E. coli DNA gyrase (Escherichia coli, UniProt P0AES4+P0AES6). The note with it: for IC50: IC50 DNA gyrase; for inhibition at 50 µM: read-out: % inhibition DNA gyrase.
For another experiment, the target named is E. coli Topoisomerase IV (Escherichia coli, UniProt P0AFI2+P20083). The conditions noted are these: for IC50: IC50 Topo IV; for inhibition at 50 µM: read-out: % inhibition Topo IV.
Another experiment has as its target S. aureus DNA gyrase (Staphylococcus aureus, UniProt P0A0K8+P20831). The conditions noted are these: for IC50: IC50 DNA gyrase; for inhibition at 50 µM: read-out: % inhibition DNA gyrase.
The target of experiment [1] is S. aureus Topoisomerase IV (Staphylococcus aureus, UniProt P0C1S7+P0C1U9). The note with it: for inhibition at 50 µM: read-out: % inhibition Topo IV.
Where [2] appears, read: S. aureus, compound conc. 50 μM, percent of inhibition versus positive control, n/a = not active.

A word on the IC50: it is the midpoint of a concentration-inhibition curve. For orientation: inhibition means the relative decrease from the control value, in per cent.

With `O=c1nc(NCC(O)CN2CCN(c3nccc4ccncc34)CC2)c2cc(F)ccc2o1` (stereo not drawn) [Compound 157, 6-fluoro-4-({2-hydroxy-3-[4-(2,7-naphthyridin-1-yl)piperazin-1-yl]propyl}amino)-2H-1,3-benzoxazin-2-one], the IC50 against E. coli DNA gyrase was determined as 2340 nM; on E. coli Topoisomerase IV, 640 nM; at S. aureus DNA gyrase, 2480 nM; in experiment [1] (S. aureus, Table 3, eight half-log concentrations ranging from 0.1 to 300 μM, read-out: IC50 Topo IV), 1020 nM. Further, the inhibition at 50 µM worked out at 83% on E. coli DNA gyrase, 100% on E. coli Topoisomerase IV, 89% on S. aureus DNA gyrase and 100% in experiment [1].
As to `COc1cnc2ncc(=O)n([C@H]3CC[C@@H](NCc4cc5c(=O)oc6ccc(F)cc6c5[nH]4)CC3)c2c1` [Compound 213, 8-fluoro-2-({[cis-4-(7-methoxy-2-oxopyrido[2,3-b]pyrazin-1(2H)-yl)cyclohexyl]amino}methyl)[1]benzopyrano[4,3-b]pyrrol-4(1H)-one], the IC50 against E. coli DNA gyrase turned out to be 110 nM; against E. coli Topoisomerase IV it was 1000 nM; against S. aureus DNA gyrase, 280 nM; in experiment [1] (IC50 Topo IV), 580 nM. Besides, the inhibition at 50 µM at E. coli DNA gyrase amounted to 98%; on E. coli Topoisomerase IV, 97%; at S. aureus DNA gyrase, 100%; in experiment [1] (setting [2]), 84%.
Regarding `O=c1oc2ccccc2c2[nH]c(CNCC3CN(c4nccc5ccc(F)cc45)CCO3)cc12` (single isomer, unassigned) [Compound 183, 2-[({[4-(7-fluoroisoquinolin-1-yl)morpholin-2-yl]methyl}amino)methyl][1]benzopyrano[4,3-b]pyrrol-4(1H)-one], the figures for the “% inhibition DNA gyrase” value on E. coli DNA gyrase and on S. aureus DNA gyrase were 81% and 84%, respectively. Also, the IC50 against E. coli DNA gyrase amounted to 770 nM; at E. coli Topoisomerase IV, 2480 nM; against S. aureus DNA gyrase it was 740 nM; in experiment [1] (IC50 Topo IV), 190 nM. In addition, the “% inhibition Topo IV” value on E. coli Topoisomerase IV is reported as 77%; in experiment [1] (setting [2]) it was 85%.
In the case of `N#Cc1cnc2c(c1)N([C@H]1CC[C@H](NCc3cc4c(=O)oc5ccc(F)cc5c4[nH]3)CC1)C(=O)CO2` [Compound 214, 1-(trans-4-{[(8-fluoro-4-oxo-1,4-dihydro[1]benzopyrano[4,3-b]pyrrol-2-yl)methyl]amino}cyclohexyl)-2-oxo-2,3-dihydro-1H-pyrido[2,3-b][1,4]oxazine-7-carbonitrile], the IC50 stood at 120 nM at E. coli DNA gyrase, 1030 nM against E. coli Topoisomerase IV, 160 nM against S. aureus DNA gyrase and 570 nM in experiment [1] (IC50 Topo IV). In addition, the inhibition at 50 µM at E. coli DNA gyrase is 99%; at E. coli Topoisomerase IV it was 100%; on S. aureus DNA gyrase, 100%; in experiment [1] (setting [2]), 100%.
For the compound `O=c1oc2ccc(F)cc2c2[nH]c(CN[C@H]3CC[C@H](n4c(=O)cnc5ncc(F)cc54)CC3)cc12` [Compound 209, 8-fluoro-2-({[trans-4-(7-fluoro-2-oxopyrido[2,3-b]pyrazin-1(2H)-yl)cyclohexyl]amino}methyl)[1]benzopyrano[4,3-b]pyrrol-4(1H)-one], the IC50 on E. coli DNA gyrase is 130 nM; against E. coli Topoisomerase IV, 1000 nM; against S. aureus DNA gyrase it was 300 nM; in experiment [1] (IC50 Topo IV) it was 220 nM. Moreover, the inhibition at 50 µM (on E. coli DNA gyrase; on E. coli Topoisomerase IV; at S. aureus DNA gyrase; in experiment [1] (setting [2])) was 100% each time.
`O=C1COc2ncc(F)cc2N1[C@H]1CC[C@H](NCc2cc3c(=O)oc4cccnc4c3[nH]2)CC1` [Compound 301]: the IC50 is 460 nM at E. coli DNA gyrase, 430 nM against E. coli Topoisomerase IV, 720 nM at S. aureus DNA gyrase and 70300 nM in experiment [1] (IC50 Topo IV).
With `NC(=O)[C@]1(NCc2cc3c(=O)oc4ccc(F)cc4c3[nH]2)CC[C@H](N2C(=O)COc3ncc(F)cc32)CC1` [Compound 217, Trans-1-{[(8-fluoro-4-oxo-1,4-dihydro[1]benzopyrano[4,3-b]pyrrol-2-yl)methyl]amino}-4-(7-fluoro-2-oxo-2,3-dihydro-1H-pyrido[2,3-b][1,4]oxazin-1-yl)cyclohexane-1-carboxamide], the IC50 against E. coli DNA gyrase came out at 1450 nM; on E. coli Topoisomerase IV it was 690 nM; against S. aureus DNA gyrase it was 2150 nM; in experiment [1] (IC50 Topo IV) it was 2720 nM. In addition, the inhibition at 50 µM on E. coli DNA gyrase was 82%; at E. coli Topoisomerase IV it was 50%; on S. aureus DNA gyrase it was 100%; in experiment [1] (setting [2]), 100%.
For `O=C1COc2ncc(F)cc2N1[C@H]1CC[C@H](NCCNc2cc(=O)oc3ccc(F)cc23)CC1` [Compound 354, 7-fluoro-1-[trans-4-({2-[(6-fluoro-2-oxo-2H-1-benzopyran-4-yl)amino]ethyl}amino)cyclohexyl]-1H-pyrido[2,3-b][1,4]oxazin-2(3H)-one], the IC50 on E. coli DNA gyrase is 470 nM; against E. coli Topoisomerase IV, 180 nM; at S. aureus DNA gyrase, 350 nM; in experiment [1] (IC50 Topo IV), 920 nM.
In the same order, the values of `O=c1cc(NCC(O)C2CCN(C[C@@H]3Cn4c(=O)ccc5ncc(=O)n3c54)CC2)c2cc(F)ccc2o1` (mixture of isomers) [Compound 343, (2R)-2-[(4-{2-[(6-fluoro-2-oxo-2H-1-benzopyran-4-yl)amino]-1-hydroxyethyl}piperidin-1-yl)methyl]-1,2-dihydro-3H,8H-2a,5,8a-triazaacenaphthylene-3,8-dione] are 910 nM, 1270 nM, 1980 nM and 8730 nM.
On to `COc1cnc2ccc(=O)n([C@H]3CC[C@H](NCc4cc5c(=O)oc6ccc(F)cc6c5[nH]4)CC3)c2c1` [Compound 204, 8-fluoro-2-({[trans-4-(7-methoxy-2-oxo-1,5-naphthyridin-1(2H)-yl)cyclohexyl]amino}methyl)[1]benzopyrano[4,3-b]pyrrol-4(1H)-one], for which the IC50 on E. coli DNA gyrase was 50 nM; against E. coli Topoisomerase IV it was < 100 nM; at S. aureus DNA gyrase, 640 nM; in experiment [1] (IC50 Topo IV) it was < 100 nM. Moreover, the inhibition at 50 µM (on E. coli DNA gyrase; at E. coli Topoisomerase IV; at S. aureus DNA gyrase; in experiment [1] (setting [2])) was 100% throughout.
Consider `O=c1oc2ccc(F)cc2c2[nH]c(CN[C@H]3CC[C@@H](n4c(=O)cnc5ncc(F)cc54)CC3)cc12` [Compound 210, 8-fluoro-2-({[cis-4-(7-fluoro-2-oxopyrido[2,3-b]pyrazin-1(2H)-yl)cyclohexyl]amino}methyl)[1]benzopyrano[4,3-b]pyrrol-4(1H)-one], for which the IC50 against E. coli DNA gyrase worked out at 440 nM; on E. coli Topoisomerase IV it was 13800 nM; at S. aureus DNA gyrase, 1300 nM; in experiment [1] (IC50 Topo IV), 1310 nM. The inhibition at 50 µM on E. coli DNA gyrase turned out to be 92%; at E. coli Topoisomerase IV, 86%; on S. aureus DNA gyrase, 100%; in experiment [1] (setting [2]), 84%.
For `O=C1COc2ncc(F)cc2N1[C@H]1CC[C@H](NCc2cc3c(=O)oc4ccc(F)cc4c3[nH]2)CC1` [Compound 193, 8-fluoro-2-({[trans-4-(7-fluoro-2-oxo-2,3-dihydro-1H-pyrido[2,3-b][1,4]oxazin-1-yl)cyclohexyl]amino}methyl)[1]benzopyrano[4,3-b]pyrrol-4(1H)-one], the IC50 at E. coli DNA gyrase was 250 nM; against E. coli Topoisomerase IV, 1380 nM; on S. aureus DNA gyrase, 280 nM; in experiment [1] (IC50 Topo IV) it was 2250 nM. Besides, the inhibition at 50 µM at E. coli DNA gyrase turned out to be 77%; at E. coli Topoisomerase IV, 50%; on S. aureus DNA gyrase, 86%; in experiment [1], 74%.
